Experimental data from PubChem BioAssay AID613 (The Scripps Research Institute Molecular Screening Center, 2007).
Calls of active or inactive are those of the source.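 Rule for the calls: active = EC50 at or below 10 micromolar; inactive = EC50 above 10 micromolar.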

Each compound was assayed against 5-hydroxytryptamine receptor 1A (Homo sapiens) (UniProt P08908) (assay: EC50 of serotonin HTR1A agonism – cell-based, CHO, Ga15 NFAT-bla reporter, dose response (AID 613)). Details: CHO 5-HT1a Ga15 NFAT-bla reporter, agonist FRET.
Sequence of 5-hydroxytryptamine receptor 1A (Homo sapiens) (P08908 whole entry, looked up): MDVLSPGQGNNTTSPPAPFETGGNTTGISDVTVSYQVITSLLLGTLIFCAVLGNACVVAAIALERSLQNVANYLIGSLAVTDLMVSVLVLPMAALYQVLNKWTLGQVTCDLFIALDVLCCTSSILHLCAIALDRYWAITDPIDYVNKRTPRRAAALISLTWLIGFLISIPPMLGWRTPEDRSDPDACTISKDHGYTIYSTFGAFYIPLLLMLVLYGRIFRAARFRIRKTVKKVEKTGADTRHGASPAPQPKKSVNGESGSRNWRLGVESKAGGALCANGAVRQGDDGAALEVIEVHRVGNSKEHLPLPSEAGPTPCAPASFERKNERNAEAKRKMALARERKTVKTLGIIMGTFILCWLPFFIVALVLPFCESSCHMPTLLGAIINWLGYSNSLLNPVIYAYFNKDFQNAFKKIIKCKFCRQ

EC50, inactive:
C=CCOc1cccc(C2C(C(=O)c3ccco3)=C(O)C(=O)N2CCN(CC)CC)c1 (stereo unspecified) > 99 µM
NC(=O)c1cc2ccc(O)cc2oc1=NCc1ccccc1
CC(C)N1CC=C2C(C#N)=C(N)C(C#N)(C#N)C(c3ccccc3)C2C1 (stereo unspecified)
CCN(CC)c1ccc2cc(C(=O)Nc3ccccn3)c(=O)oc2c1 > 99 µM
Cc1ccc(C2C3CN(C(C)C)CC=C3C(C#N)=C(N)C2(C#N)C#N)cc1 (stereo unspecified)
CCCCOc1ccc(C2C3CN(C(=O)OCC)CC=C3C(C#N)=C(N)C2(C#N)C#N)cc1OC (stereo unspecified) > 99 µM
Cc1cccc(N=c2oc3cc(O)ccc3cc2C(N)=O)c1
Cc1ccc(N=c2oc3cc(O)ccc3cc2C(N)=O)cc1
Cc1ccc(N2C(=O)CC(N3CCN(C4CCc5ccccc5C4)CC3)C2=O)cc1 (stereo unspecified) > 99 µM
CCOC(=O)c1sc2c(c1C)C(c1cccs1)C1=C(CCCC1=O)N2 (stereo unspecified) > 33 µM
CN(C)CCCN1C(=O)C(=O)/C(=C(/O)c2ccc3c(c2)OCCO3)C1c1ccccn1 (stereo unspecified) > 99 µM
CCCCCCc1cc2cc(-c3nnc(-c4ccccc4O)o3)c(=O)oc2cc1O > 99 µM
N#C/C(=C(/O)COC(=O)Cc1c[nH]c2ccccc12)c1nc2ccccc2[nH]1 > 99 µM
COc1ccc(N=c2oc3cc(O)ccc3cc2C(=O)NCC2CCCO2)cc1 (stereo unspecified) > 99 µM
N#CC1=C(N)N(c2ccccc2)C(c2ccco2)C1(C#N)C#N (stereo unspecified) > 99 µM
COc1ccc(OC)c(N=c2oc3cc(O)ccc3cc2C(N)=O)c1 > 99 µM
CCCCCCc1cc2cc(C(=O)NC)c(=N)oc2cc1O
Nc1nonc1/C(=N/O)N1CCCC1 > 99 µM
COc1ccccc1N=c1oc2cc(O)ccc2cc1C(=O)NCC1CCCO1 (stereo unspecified)
NC(=O)c1cc2ccc(O)cc2oc1=Nc1ccccc1
COc1ccc(N=c2oc3cc(O)ccc3cc2C(=O)NCC2CCCO2)c(OC)c1 (stereo unspecified) > 99 µM
COc1ccccc1N=c1oc2cc(O)ccc2cc1C(N)=O
COCCOC(=O)C1=C(C)Nc2nc(C)nn2C1c1ccc(F)cc1 (stereo unspecified) > 99 µM
CN(C)c1ccc(C2C=C(c3ccc(Cl)cc3OC(F)F)Nc3ncnn32)cc1 (stereo unspecified) > 99 µM
CCSCCOC(=O)C1=C(C)NC(=O)NC1c1ccc2c(c1)OCO2 (stereo unspecified) > 99 µM
Cc1noc(NS(=O)(=O)c2ccc(N3CC(O)=C(c4ccccc4)C3=N)cc2)c1C > 99 µM
